Assay results published in PMC9953468, “In Silico, In Vitro, and Ex Vivo Biological Activity of Some Novel Mebeverine Precursors” (Biomedicines, 2023).

Legend:
Assay in all cases: Antimicrobial activity, agar well diffusion method
Type in all cases: cell-based
Conditions in all cases: Dose 0.6 mg/disk, dwell = 6 mm
[1] = test system: Escherichia coli ATCC 25922
From the text: (§1) Eighteen tested microorganisms including five Gram-positive bacteria (Bacillus subtilis ATCC 6633, Bacillus amyloliquefaciens 4BCL-YT, Staphylococcus aureus ATCC 25923, Listeria monocytogenes NBIMCC 8632, Enterococcus faecalis ATCC 19433), five Gram-negative bacteria (Salmonella enteritidis ATCC 13076, Klebsiella sp.—clinical isolate, Escherichia coli ATCC 25922, Proteus vulgaris ATCC 6380, Pseudomonas aeruginosa ATCC 9027), two yeasts (Candida albicans NBIMCC 74, Saccharomyces cerevisiae ATCC 9763) and six fungi (Aspergillus niger ATCC 1015, Aspergillus flavus, Penicillium sp., Rhizopus sp., Mucor sp.—plant isolates, Fusarium moniliforme ATCC 38932) from the collection of the Department of Microbiology at the University of Food Technologies—Plovdiv, Bulgaria, were selected for the antimicrobial activity test.
(§2) The antimicrobial activity of the samples was determined by the agar well diffusion method. The tested bacteria B. subtilis and B. amyloliquefaciens were cultured on LBG agar at 30 °C. The test bacteria S. aureus, L. monocytogenes, E. faecalis, S. enteritidis, Klebsiella sp., E. coli, P. vulgaris and P. aeruginosa were cultured on LBG agar at 37 °C for 24 h. The yeast C. albicans was cultured on MEA at 37 °C, while S. cerevisiae was cultured on MEA at 30 °C for 24 h. The fungi A. niger, A. flavus, Penicillium sp., Rhizopus sp., Mucor sp., and F. moniliforme were grown on MEA at 30 °C for 7 days or until sporulation.
(§3) The inocula of the tested bacteria/yeasts were prepared by homogenization of a small amount of biomass in 5 mL of sterile 0.5% NaCl. The inocula of tested fungi were prepared by the addition of 5 mL of sterile 0.5% NaCl into the tubes. After stirring by vortex V-1 plus (Biosan), they were filtered and replaced in other tubes before use. The number of viable cells and fungal spores was determined using a bacterial counting chamber Thoma (Poly-Optik, GmbH, Bad Blankenburg, Germany). Their final concentrations were adjusted to 10^8 cfu/mL for bacterial/yeast cells and 10^5 cfu/mL for fungal spores and then inoculated in preliminarily melted and tempered at 45–48 °C LBG/MEA agar media. Next, the inoculated media were transferred in a quantity of 18 mL in sterile Petri plates (d = 90 mm) (Gosselin™, Hazebrouck, France) and allowed to harden. Then, six wells (d = 6 mm) per plate were cut, and triplicates of 60 μL of each extract were pipetted into the agar wells. The Petri plates were incubated in identical conditions.
(§4) The antimicrobial activity was determined by measuring the diameter of the inhibition zones around the wells on the 24th and 48th h of incubation. […]

Klebsiella sp. = test system: Klebsiella sp.
From the text: as §1, §2, §3, §4

[2] = test system: Pseudomonas aeruginosa ATCC 9027
From the text: as §1, §2, §3, §4

Saccharomyces cerevisiae = test system: Saccharomyces cerevisiae
From the text: as §1, §2, §3, §4

## CC(=O)NC(Cc1ccccc1)C(C)C (stereo not shown) [Compound 4a, N-(3-methyl-1-phenylbutan-2-yl)acetamide]
[1]
  Inhibition Zones: 8 mm

## CC(C)C(N)Cc1ccccc1 (stereo not shown) [Compound 3, 3-Methyl-1-phenylbutan-2-amine]
Klebsiella sp.
  Inhibition Zones: 8 mm
[2]
  Inhibition Zones: 9 mm
Saccharomyces cerevisiae
  Inhibition Zones: 8 mm
